The subject of the series is Human dermal fibroblast cells. Put plainly: MTS-based cell viability assay on fiber mats. Conditions: 24 hours culture. The method, then: Human dermal fibroblast cells were cultured according to the procedures recited in Biomacromolecules, 2005, 6 (5), pp 2583-2589. Briefly, cells were cultured in DMEM medium (Gibco®) supplemented with 10% (v/v) fetal bovine serum, 50 U/ml penicillin and 50 μg/ml streptomycin in a humidified incubator at 37° C. and 5% CO2. All the cell culture reagents were obtained from Life Technologies Corporation (Singapore). For biocompatibility experiments, cells were seeded onto the coverslips precoated with scaffolds and placed at the bottom of the 12-well plates (Nunc®) at a density of 10×10^4 cells/well and allowed to grow for 24 hours before analysis. For the negative control well(s), nocodazole was added to a final concentration of 5 μg/mL in the culture medium.
Cell viability was determined using CellTier 96® Aqueous One solution cell proliferation assay kit according to the manufacturer's instruction (Promega Corporation, Madison, Wis.), and according to the procedures recited in Kim B J et al., Reinforced multifunctionalized nanofibrous scaffolds using mussel adhesive proteins, Angew Chem Int Ed Eng, 2012; 51:675-8. This assay evaluates mitochondrial function by measuring the ability of viable cells to reduce MTS ((3-(4,5-dimethylthiazol-2-yl)-5-(3-carboxymethoxyphenyl)-2-(4-sulfophenyl)-2H-tetrazolium)) into a quantifiable […] formazon product. […]

The results in this text go back to US20180193209A1, “A POLYMER PRODUCT AND PREPARATION THEROF” (SINGAPORE HEALTH SERVICES PTE LTD., priority 2015, published 2018).

SMILES strings stand for the structures.

Turning to `COC(=O)Nc1nc2ccc(C(=O)c3cccs3)cc2[nH]1` [nocodazole], the “effect on cell viability (MTS)” value is recorded as “significant cell death”.
